Experimental data taken from PubChem BioAssay AID330 (DTP/NCI, 2004).
Values joined by “and” are separate entries in the source; they are usually repeats but may differ in a detail not shown here. Identical values can stand only once. Inconclusive results and toxic doses are left out. Rule for the calls: active = survival T/C of 150% or more; inactive = T/C below 125% in these data.

Test system: P388 leukemia ip, CD2F1 mice, survival T/C
Experiment: NCI In Vivo Anticancer Drug Screen. Data for tumor model P388 Leukemia (intraperitoneal) in CD2F1 (CDF1) mice
Conditions: endpoint: median survival time, higher = longer survival
Summary of the method: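 Mice carrying the transplanted tumor received test compound or vehicle. Survival was recorded in each group, and the value is the treated-group measurement divided by that of the vehicle-treated control group.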

[1] = dose: 50.0 mg/kg/injection, schedule: Q01DX009 (ip), vehicle: saline with Tween-80
[2] = dose: 100.0 mg/kg/injection, schedule: Q01DX009 (ip), vehicle: saline with Tween-80
[3] = dose: 50.0 mg/kg/injection, schedule: Q01DX005 (ip), vehicle: saline with Tween-80
[4] = dose: 100.0 mg/kg/injection, schedule: Q01DX005 (ip), vehicle: saline with Tween-80
[5] = dose: 100.0 mg/kg/injection, schedule: Q04DX003 (ip), vehicle: saline with Tween-80
[6] = dose: 100.0 mg/kg/injection, schedule: Q01DX001 (ip), vehicle: Klucel (hydroxypropylcellulose) (HPC)
[7] = dose: 200.0 mg/kg/injection, schedule: Q01DX001 (ip), vehicle: Klucel (hydroxypropylcellulose) (HPC)
[8] = dose: 400.0 mg/kg/injection, schedule: Q01DX001 (ip), vehicle: Klucel (hydroxypropylcellulose) (HPC)
[9] = dose: 60.0 mg/kg/injection, schedule: Q01DX005 (ip), vehicle: saline
[10] = dose: 120.0 mg/kg/injection, schedule: Q01DX005 (ip), vehicle: saline
[11] = dose: 240.0 mg/kg/injection, schedule: Q01DX005 (ip), vehicle: saline
[12] = dose: 50.0 mg/kg/injection, schedule: Q01DX005 (ip), vehicle: Klucel (hydroxypropylcellulose) (HPC)
[13] = dose: 100.0 mg/kg/injection, schedule: Q01DX005 (ip), vehicle: Klucel (hydroxypropylcellulose) (HPC)
[14] = dose: 200.0 mg/kg/injection, schedule: Q01DX005 (ip), vehicle: Klucel (hydroxypropylcellulose) (HPC)

Measured: T/C

CC1OC(O[C@@H]2C=C3CC[C@@H]4[C@H](CC[C@]5(C)[C@@H](c6ccc(=O)oc6)CC[C@]45O)[C@@]3(C)CC2)C(O)C(O)C1O (stereo not given in full)
inactive: dose: 1.25 mg/kg/injection, schedule: Q01DX010 (sc), vehicle: steriod suspending solution 110 % of control | dose: 2.5 mg/kg/injection, schedule: Q01DX010 (sc), vehicle: steriod suspending solution 110 % of control | dose: 5.0 mg/kg/injection, schedule: Q01DX010 (sc), vehicle: steriod suspending solution 110 % of control | dose: 10.0 mg/kg/injection, schedule: Q01DX010 (sc), vehicle: steriod suspending solution 115 % of control

O=C(COc1ccc(Cl)cc1Cl)Oc1c(Cl)c(Cl)c(Cl)c(Cl)c1Cl
inactive: dose: 25.0 mg/kg/injection, schedule: Q01DX009 (ip), vehicle: saline with Tween-80 91 % of control | [1] 91 % of control | [2] 91 % of control

Nc1[nH]c(=S)[nH]c(=O)c1NS(=O)(=O)c1ccc([N+](=O)[O-])cc1
inactive: dose: 30.0 mg/kg/injection, schedule: Q01DX005 (ip), vehicle: Klucel (hydroxypropylcellulose) (HPC) 101 % of control and 108 % of control | dose: 60.0 mg/kg/injection, schedule: Q01DX005 (ip), vehicle: Klucel (hydroxypropylcellulose) (HPC) 98 % of control and 94 % of control | dose: 120.0 mg/kg/injection, schedule: Q01DX005 (ip), vehicle: Klucel (hydroxypropylcellulose) (HPC) 101 % of control and 92 % of control | dose: 240.0 mg/kg/injection, schedule: Q01DX005 (ip), vehicle: Klucel (hydroxypropylcellulose) (HPC) 90 % of control

CN1CC2(C)CCCC(C)(C1)C2O (stereo not given)
inactive: [3] 106 % of control | [4] 98 % of control

N#CS.[Cr+3].[NH-]CC[NH-].[NH-]CC[NH-].[NH-]CC[NH-]
inactive: [1] 104 % of control | [2] 95 % of control | [5] 100 % of control | dose: 200.0 mg/kg/injection, schedule: Q04DX003 (ip), vehicle: saline with Tween-80 104 % of control

CC(=O)CC(=O)c1ccc(F)cc1.CC(=O)CC(=O)c1ccc(F)cc1.[Cu]
inactive: dose: 10.0 mg/kg/injection, schedule: Q01DX009 (ip), vehicle: saline with Tween-80 88 % of control | dose: 20.0 mg/kg/injection, schedule: Q01DX009 (ip), vehicle: saline with Tween-80 89 % of control

CCCCCCCCCCCCCCCC(=O)OC12CC(C)C3(O)C(C=C(CO)CC4(O)C(=O)C(C)=CC43)C1C2(C)CO (stereo not given)
inactive: dose: 0.03 mg/kg/injection, schedule: Q01DX009 (ip), vehicle: saline with Tween-80 119 % of control | dose: 0.06 mg/kg/injection, schedule: Q01DX009 (ip), vehicle: saline with Tween-80 100 % of control | dose: 0.9 micrograms/kg/injection, schedule: Q01DX009 (ip), vehicle: other 100 % of control | dose: 1.8 micrograms/kg/injection, schedule: Q01DX009 (ip), vehicle: other 99 % of control | dose: 3.7 micrograms/kg/injection, schedule: Q01DX009 (ip), vehicle: other 101 % of control | dose: 7.5 micrograms/kg/injection, schedule: Q01DX009 (ip), vehicle: other 101 % of control | dose: 15.0 micrograms/kg/injection, schedule: Q01DX009 (ip), vehicle: other 104 % of control | dose: 30.0 micrograms/kg/injection, schedule: Q01DX009 (ip), vehicle: other 104 % of control

Cc1ccc(-c2nc3sccn3c2C=O)cc1
inactive: [6] 95 % of control | [7] 96 % of control | [8] 96 % of control

O=c1ccn2c(n1)OC1C(O)C(CO)OC12 (stereo not given)
inactive: dose: 50.0 mg/kg/injection, schedule: Q04DX003 (ip), vehicle: saline 100 % of control | dose: 100.0 mg/kg/injection, schedule: Q04DX003 (ip), vehicle: saline 103 % of control | dose: 200.0 mg/kg/injection, schedule: Q04DX003 (ip), vehicle: saline 102 % of control | dose: 400.0 mg/kg/injection, schedule: Q04DX003 (ip), vehicle: saline 91 % of control

CC1C(O)=C(c2ccccc2)P(=O)(Cc2ccccc2)C1C (stereo not given)
inactive: [9] 101 % of control | [10] 100 % of control | [11] 93 % of control

O=C(O)/C(Br)=C/c1ccccc1
inactive: [1] 87 % of control | [2] 91 % of control | dose: 200.0 mg/kg/injection, schedule: Q01DX009 (ip), vehicle: saline with Tween-80 87 % of control

O=c1cc(O)nc2cn[nH]n12
inactive: dose: 50.0 mg/kg/injection, schedule: Q01DX009 (ip), vehicle: saline 99 % of control | dose: 100.0 mg/kg/injection, schedule: Q01DX009 (ip), vehicle: saline 90 % of control | dose: 200.0 mg/kg/injection, schedule: Q01DX009 (ip), vehicle: saline 101 % of control

NNC(=O)c1ccc(OCc2nc3ccccc3[nH]2)cc1
inactive: dose: 3.12 mg/kg/injection, schedule: Q01DX005 (ip), vehicle: saline with Tween-80 100 % of control | dose: 6.25 mg/kg/injection, schedule: Q01DX005 (ip), vehicle: saline with Tween-80 100 % of control | dose: 12.5 mg/kg/injection, schedule: Q01DX005 (ip), vehicle: saline with Tween-80 98 % of control | dose: 25.0 mg/kg/injection, schedule: Q01DX005 (ip), vehicle: saline with Tween-80 94 % of control

NC(Cc1ccccc1)C(=O)Nc1ccncc1 (stereo not given)
inactive: dose: 12.5 mg/kg/injection, schedule: Q01DX001 (ip), vehicle: saline 105 % of control | dose: 25.0 mg/kg/injection, schedule: Q01DX001 (ip), vehicle: saline 106 % of control | dose: 50.0 mg/kg/injection, schedule: Q01DX001 (ip), vehicle: saline 103 % of control

O=C(CSc1ccccc1)c1ccccc1
inactive: dose: 10.0 mg/kg/injection, schedule: Q01DX005 (ip), vehicle: Klucel (hydroxypropylcellulose) (HPC) 101 % of control | dose: 20.0 mg/kg/injection, schedule: Q01DX005 (ip), vehicle: Klucel (hydroxypropylcellulose) (HPC) 102 % of control | dose: 40.0 mg/kg/injection, schedule: Q01DX005 (ip), vehicle: Klucel (hydroxypropylcellulose) (HPC) 101 % of control

C[N+](C)(C)C1CCC2CCCCC2C1 (stereo not given)
inactive: dose: 12.5 mg/kg/injection, schedule: Q04DX003 (ip), vehicle: saline with Tween-80 103 % of control | dose: 25.0 mg/kg/injection, schedule: Q04DX003 (ip), vehicle: saline with Tween-80 100 % of control and 107 % of control and 98 % of control | dose: 50.0 mg/kg/injection, schedule: Q04DX003 (ip), vehicle: saline with Tween-80 100 % of control and 104 % of control and 124 % of control | [5] 98 % of control

O=C(O)C(Cc1cn(Cc2ccccc2)cn1)NCc1ccccc1 (stereo not given)
inactive: [12] 92 % of control | [13] 104 % of control | [14] 95 % of control

O=P(O)(O)O
inactive: [9] 97 % of control | [10] 97 % of control | [11] 90 % of control

Cc1cc(NC(=O)c2ccccc2O)n(-c2ccccc2)n1
inactive: dose: 100.0 mg/kg/injection, schedule: Q01DX001 (ip), vehicle: saline with Tween-80 97 % of control | dose: 200.0 mg/kg/injection, schedule: Q01DX001 (ip), vehicle: saline with Tween-80 100 % of control | dose: 400.0 mg/kg/injection, schedule: Q01DX001 (ip), vehicle: saline with Tween-80 95 % of control

O=C(NCc1ccco1)Nc1ccccc1[N+](=O)[O-]
inactive: [12] 96 % of control | [13] 95 % of control | [14] 95 % of control

CC(/C=C/c1ccc(Cl)c(Cl)c1)=N\NC(N)=S
inactive: dose: 60.0 mg/kg/injection, schedule: Q01DX005 (ip), vehicle: saline with Tween-80 121 % of control

CCCn1c(Cl)c(C=O)c2ccccc21
inactive: [6] 104 % of control | [7] 98 % of control | [8] 97 % of control

COc1ccc2[nH]cc(C3CCCN4CCCCC34)c2c1 (stereo not given)
inactive: [3] 101 % of control | [4] 99 % of control
